Experimental data reported in patent US8258176B2, “Dithiolopyrrolone compounds, the preparation and the use thereof” (Shanghai Institute of Pharmaceutical Industry, priority 2007, dated 2012).
Read-outs that look alike come from different tables or passages of the source.

Columns and labels:
[1] = test system: peripheral blood leukocytes of model mice; conditions: for NE % (percentage of neutrophils in the total number of white blood cells) / WBC count: CTX model mice
Experimental: Sample: series of dithiolopyrrolone compounds were dissolved in 0.5% CMC—Na to be suspension after grinding with Tween (less than 4% usage).
Cyclophosphamide for Injection (CTX), Shanghai Hualian Pharmaceutical Co., Ltd., batch number: 050606, prepared of being dissolved in saline.
SAIGELI (G-CSF), Shanghai Sunway Biotech Co., Ltd., batch number: 051001
Animal blood analyzer, model: HEMAVET950 • 2. Method
40 BALB/c mice, were randomly divided into five groups, blank control group, positive control (G-CSF) group (22.5 ug/kg), and two dithiolopyrrolone derivatives groups (compounds 001 and 004, 20 mg/kg), CTX model group (100 mg/kg), respectively with 8 mice in each group. rThe blank control group wasn't treated in any way, the other four groups were treated with CTX intraperitoneal injection, 100 mg/kg, once a day. […] G-CSF group was given G-CSF (22.5 ug/kg) subcutaneously once a day, one day after the completing of the injection of CTX. Dithiolopyrrolone derivatives groups were administered with dithiolopyrrolone derivatives (20 mg/kg), through gavaging once a day (0.5 ml), one day after the completing of the injection of CTX. The mice of model group and blank control group were administered with an equivalent 0.5% CMC—Na solution through gavaging.
Blood specimens were collected according to conventional method via the mice orbital vein, on the 0, 4, 6, 8 day respectively, when the day of administering CTX is set as the first day, then the peripheral blood routine test was carried out, and the effect of series of dithiolopyrrolone compounds on peripheral blood leukocytes of normal mice was analyzed. • 3. Results

[2] = test system: bone marrow granulocyte series; assay: Bone marrow smear microscopic examination of CTX model mice; type: in vivo, BALB/c mice; conditions: bone marrow smear after treatment
[3] = test system: peripheral blood leukocytes of normal mice; assay: Effects on peripheral blood leukocytes of normal mice (peripheral blood routine test); type: in vivo; conditions: G-CSF 22.5 ug/kg sc once a day
Source text: Animal hematology analyzer, model: HEMAVET950 • 2. Method
The mice were divided into blank control group, positive control group and the dithiolopyrrolone series of compounds group, there are 10 mice in each group.

[4] = day 0 (before CTX 100 mg/kg ip x 3 days)
[5] = day 4, CTX 100 mg/kg ip days 1-3, compounds 20 mg/kg ig, G-CSF 22.5 ug/kg sc once a day from one day after CTX
[6] = day 6, CTX 100 mg/kg ip days 1-3, compounds 20 mg/kg ig, G-CSF 22.5 ug/kg sc once a day from one day after CTX
[7] = day 8, CTX 100 mg/kg ip days 1-3, compounds 20 mg/kg ig, G-CSF 22.5 ug/kg sc once a day from one day after CTX
[8] = day 0 (before administration), compounds 20 mg/kg ig once a day
[9] = day 3, compounds 20 mg/kg ig once a day
[10] = day 5, compounds 20 mg/kg ig once a day

O=P1(N(CCCl)CCCl)NCCCO1 (stereo not shown) [CTX, Cyclophosphamide, reference compound]
total number of white blood cells and percentage of neutrophils after CTX ([1]; CTX 100 mg/kg ip once a day, after three days of administration): significantly decreased | NE % (percentage of neutrophils in the total number of white blood cells) [1, 4]: 28.46% | WBC count [1, 4]: 5.88e+09 L⁻¹ | NE % (percentage of neutrophils in the total number of white blood cells) [1, 5]: 3.33% | WBC count [1, 5]: 1.34e+09 L⁻¹ | NE % (percentage of neutrophils in the total number of white blood cells) [1, 6]: 6.7% | WBC count [1, 6]: 1.2e+09 L⁻¹ | NE % (percentage of neutrophils in the total number of white blood cells) [1, 7]: 38.32% | WBC count [1, 7]: 5.7e+09 L⁻¹ | granulocyte series in bone marrow smear (microscopic examination) [2]: severely inhibited

COc1ccc(-n2c3cssc-3c(NC(=O)Oc3ccccc3)c2=O)c(OC)c1 [compound 001]
NE % (percentage of neutrophils in the total number of white blood cells) [3, 8]: 33.73% | WBC count [3, 8]: 7.89e+09 L⁻¹ | NE % (percentage of neutrophils in the total number of white blood cells) [3, 9]: 67.44% | WBC count [3, 9]: 1.824e+10 L⁻¹ | NE % (percentage of neutrophils in the total number of white blood cells) [3, 10]: 72.13% | WBC count [3, 10]: 2.496e+10 L⁻¹ | NE % (percentage of neutrophils in the total number of white blood cells) [1, 4]: 27.32% | WBC count [1, 4]: 5.98e+09 L⁻¹ | NE % (percentage of neutrophils in the total number of white blood cells) [1, 5]: 2.48% | WBC count [1, 5]: 1.21e+09 L⁻¹ | NE % (percentage of neutrophils in the total number of white blood cells) [1, 6]: 42.71% | WBC count [1, 6]: 2.75e+09 L⁻¹ | NE % (percentage of neutrophils in the total number of white blood cells) [1, 7]: 76.84% | WBC count [1, 7]: 1.844e+10 L⁻¹ | granulocyte series in bone marrow smear (microscopic examination) [2]: significant hyperplasia and speeding up of the differentiation and maturation

CCOC(=O)Nc1c2sscc-2n(-c2ccc(OC)cc2OC)c1=O [compound 004]
NE % (percentage of neutrophils in the total number of white blood cells) [3, 8]: 31.56% | WBC count [3, 8]: 7.65e+09 L⁻¹ | NE % (percentage of neutrophils in the total number of white blood cells) [3, 9]: 56.36% | WBC count [3, 9]: 1.336e+10 L⁻¹ | NE % (percentage of neutrophils in the total number of white blood cells) [3, 10]: 78.24% | WBC count [3, 10]: 1.866e+10 L⁻¹ | NE % (percentage of neutrophils in the total number of white blood cells) [1, 4]: 18.65% | WBC count [1, 4]: 5.86e+09 L⁻¹ | NE % (percentage of neutrophils in the total number of white blood cells) [1, 5]: 4.34% | WBC count [1, 5]: 1.11e+09 L⁻¹ | NE % (percentage of neutrophils in the total number of white blood cells) [1, 6]: 36.47% | WBC count [1, 6]: 1.42e+09 L⁻¹ | NE % (percentage of neutrophils in the total number of white blood cells) [1, 7]: 87.62% | WBC count [1, 7]: 1.528e+10 L⁻¹ | granulocyte series in bone marrow smear (microscopic examination) [2]: significant hyperplasia and speeding up of the differentiation and maturation

B1: G-CSF: granulocyte colony-stimulating factor, SAIGELI, Shanghai Sunway Biotech Co., Ltd.; positive control (protein, UniProt P09919 31-207, looked up)
Granulocyte …: TPLGPASSLPQSFLLKCLEQVRKIQGDGAALQEKLVSECATYKLCHPEELVLLGHSLGIPWAPLSSCPSQALQLAGCLSQLHSGLFLYQGLLQALEGISPELGPTLDTLQLDVADFATTIWQQMEELGMAPALQPTQGAMPAFASAFQRRAGGVLVASHLQSFLEVSYRVLRHLAQP
NE % (percentage of neutrophils in the total number of white blood cells) [3, 8]: 25.39% | WBC count [3, 8]: 6.74e+09 L⁻¹ | NE % (percentage of neutrophils in the total number of white blood cells) [3, 9]: 57.86% | WBC count [3, 9]: 1.748e+10 L⁻¹ | NE % (percentage of neutrophils in the total number of white blood cells) [3, 10]: 60.68% | WBC count [3, 10]: 1.922e+10 L⁻¹ | NE % (percentage of neutrophils in the total number of white blood cells) [1, 4]: 30.34% | WBC count [1, 4]: 5.92e+09 L⁻¹ | NE % (percentage of neutrophils in the total number of white blood cells) [1, 5]: 4.58% | WBC count [1, 5]: 1.14e+09 L⁻¹ | NE % (percentage of neutrophils in the total number of white blood cells) [1, 6]: 30.07% | WBC count [1, 6]: 1.84e+09 L⁻¹ | NE % (percentage of neutrophils in the total number of white blood cells) [1, 7]: 59.68% | WBC count [1, 7]: 1.54e+10 L⁻¹ | granulocyte series in bone marrow smear (microscopic examination) [2]: significant hyperplasia and speeding up of the differentiation and maturation
